Reference: patent publication US20260345603A1, “PRMT5 INHIBITORS” (Beijing Earthwise Technology Co., Ltd., priority 2022, published 2026)
Read-outs that look alike come from different tables or passages of the source.

Test system: HCT116^MTAP Deletion cells
Assay: Anti-proliferation assay on cells (CTG, 10 days), HCT116 MTAP Deletion
Assay type: cell-based
Settings: anti-proliferative activity, HCT116 MTAP Deletion, 10 days, class symbols, read-out: HCT116^MTAP Deletion GI50
Method: HCT116^MTAD Deletion cells were from Pharmaron (China); HCT116 cells were from ATCC; McCoy's 5A medium was purchased from Invitrogen (USA); penicillin-streptomycin and fetal bovine serum were purchased from Gibco (USA); a 384-well plate was purchased from PerkinElmer (USA); and Cell-Titer Glo reagent was purchased from Promega (USA).
Compound dissolution: All the compounds were dissolved in dimethyl sulfoxide (DMSO) and then stored. The compounds were stored at room temperature in a dry condition for 3 months for short term storage or at −20 °C for long term storage.
The cells were cultured strictly in accordance with ATCC requirements. The cell culture medium (McCoy's 5A medium+10% fetal bovine serum+1% penicillin+streptomycin) was transferred to a 15 mL centrifuge tube and centrifuged at 1000 rpm for 5 min. The supernatant was removed. The cells were resuspended with complete culture medium, inoculated into a culture dish at the required density, and cultured in an incubator at 37 °C, 95% humid air, and 5% carbon dioxide. The culture medium was replenished or the cells were passaged every 2-3 days depending on the cell growth condition.
When the confluency of cells in the culture dish reached about 90%, the cells were washed twice with PBS, and then treated with trypsin to become single cells. The cells were counted, and 40 μl of the cells was inoculated into each well of a 384-well plate (50 cells/well). The plate was equilibrated at 37 °C and 5% carbon dioxide for 10 to 15 minutes. The compounds were injected into the 384-well plate using Echo550, and positive control and negative control (0.1% DMSO) were set up. Each compound was subjected to a 3-fold dilution, resulting in 10 concentration gradients, in duplicate, and the content of DMSO was 0.1%. The 384-well plate was incubated in a cell culture incubator for 10 days.
Then, 40 μl of cell proliferation assay reagent (CTG) was added to the 384-well plate, and the plate was shaken to mix well. Then, the 384-well plate was incubated at 37 °C and 5% carbon dioxide in the dark for 30 minutes. The data were read using the Envision multifunctional microplate reader. […] According to the different drug concentrations and their corresponding inhibition rates, the GI50 curve was drawn using GraphPad 8.0 software. The data were analyzed, and the final GI50 value was obtained.

GI50 (Homo sapiens, HCT-116, 240 h) [nM]	GI50 [nM]	SMILES
10 to 100	–	Cc1cc(NC(=O)C(=O)N(Cc2ccc(C(F)(F)F)cn2)C(C)c2cscn2)cnc1N (single isomer, unassigned) [Example 19-P1]
100 to 1000	–	CCc1cc(NC(=O)C(=O)N(Cc2ccc(C(F)(F)F)cn2)[C@H](C)c2ncccn2)cnc1N [Example 21]
10 to 100	–	Cc1cc(NC(=O)C(=O)N(Cc2ccc(C(F)(F)F)cn2)CC(C)C)cnc1N [Example 37]
10 to 100	–	COC[C@H](C)N(Cc1ccc(C(F)(F)F)cn1)C(=O)C(=O)Nc1cnc(N)c(C)c1 [Example 9]
10 to 100	–	CCC(C)N(Cc1ccc(C(F)(F)F)cn1)C(=O)C(=O)Nc1cnc(N)c(C)c1 (single isomer, unassigned) [Example 45-P1]
10 to 100	–	CCC(C)N(Cc1ccc(C(F)(F)F)cn1)C(=O)C(=O)Nc1cnc(N)c2c1cnn2C (racemic) [Example 46-P1]
10 to 100	–	CCC(C)N(Cc1ccc(C(F)(F)F)cn1)C(=O)C(=O)Nc1cnc(N)c(C)c1 (centres unmarked) [Example 8]
10 to 100	–	Cc1cc(NC(=O)C(=O)N(Cc2ccc(C(F)(F)F)cn2)[C@H](C)C2CC2)cnc1N [Example 36]
10 to 100	–	C[C@H](c1ncccn1)N(Cc1ccc(C(F)(F)F)cn1)C(=O)C(=O)Nc1cnc(N)c2c1cnn2C [Example 30]
10 to 100	–	CCC(C)N(Cc1ccc(C(F)(F)F)cn1)C(=O)C(=O)Nc1cnc(N)c2c1COC2C (centres unmarked) [Example 10]
10 to 100	–	CN(C(=O)C(=O)Nc1cnc(N)c2c1cnn2C)C1COCc2cc(C(F)(F)F)ccc21 (centres unmarked) [Example 106-P1]
10 to 100	–	CCC(C)N(Cc1ccc(C(F)(F)F)cn1)C(=O)C(=O)Nc1cnc(N)c2c1cnn2C (centres unmarked) [Example 46-P2]
≤ 10	–	Cn1ncc2c(NC(=O)C(=O)N(Cc3ccc(C(F)(F)F)cn3)CC3CC3)cnc(N)c21 [Example 43]
–	10 to 100	CN(C(=O)C(=O)Nc1cnc(N)c2c1cnn2C)C1COc2cc(C(F)(F)F)ccc21 (single isomer, unassigned) [Example 112-P2]
10 to 100	–	CC(c1cscn1)N(Cc1ccc(C(F)(F)F)cn1)C(=O)C(=O)Nc1cnc(N)c2c1cnn2C (centres unmarked) [Example 44]
10 to 100	–	CCC(C)N(Cc1ccc(C(F)(F)F)cn1)C(=O)C(=O)Nc1cnc(OC)c(C(N)=O)c1 (single isomer, unassigned) [Example 5-P1]
–	≤ 10	CCC(C)N(Cc1ccc(C(F)(F)F)cn1)C(=O)C(=O)Nc1cnc(N)c2c1cnn2C (centres unmarked) [Example 52]
100 to 1000	–	CN(C(=O)C(=O)Nc1cnc(N)c2c1cnn2C)C1COc2nc(C(F)(F)F)ccc21 (centres unmarked) [Example 159]
100 to 1000	–	C[C@H](C1CC1)N(Cc1ccc(C(F)(F)F)cn1)C(=O)C(=O)Nc1cnc(N)c2c1COC2 [Example 39]

Continued, molecule first:

SMILES	GI50 (Homo sapiens, HCT-116, 240 h) [nM]	GI50 [nM]
CN(C(=O)C(=O)Nc1cnc(N)c2c1cnn2C)C1COCc2cc(-c3cnn(C)c3)ccc21 (centres unmarked) [Example 99]	≤ 10	–
Cc1ncc(-c2ccc3c(n2)COCC3N(C)C(=O)C(=O)Nc2cnc(N)c3c2cnn3C)s1 (racemic) [Compound 209]	≤ 10	–
Cc1cc(NC(=O)C(=O)N(Cc2ccc(C#N)cn2)[C@H](C)c2ncccn2)cnc1N [Example 28]	1000 to 10000	–
Cc1cc(NC(=O)C(=O)N(C)Cc2ccc(C(F)(F)F)cn2)cnc1N [Example 3]	1000 to 10000	–
CN(C(=O)C(=O)Nc1cnc(N)c2c1cnn2C)C1COc2cc(-c3ccnn3C3CC3)ccc21 (centres unmarked) [Example 212]	≤ 10	–
CCC(C)N(Cc1ccc(OCC(F)(F)F)nn1)C(=O)C(=O)Nc1cnc(N)c(C)c1 (centres unmarked) [Example 63]	100 to 1000	–
Cc1cc(NC(=O)C(=O)N(C)C2COCc3cc(C4=CCOCC4)ccc32)cnc1N (racemic) [Compound 162]	100 to 1000	–
C[C@H](c1ncccn1)N(Cc1ccc(C(F)(F)F)cn1)C(=O)C(=O)Nc1cnc(N)c2c1CCCC2 [Example 31]	100 to 1000	–
Cc1cc(NC(=O)C(=O)N(Cc2ccc(C(F)(F)F)cn2)CC2CCC2)cnc1N [Example 16]	10 to 100	–
Nc1ncc(NC(=O)C(=O)N(Cc2ccc(C(F)(F)F)cn2)CC2CC2)c2c1COC2 [Example 40]	100 to 1000	–
CN(C(=O)C(=O)Nc1cnc(N)c2c1cnn2C)C1COc2cc(-c3cnc(C4CC4)s3)ccc21 (centres unmarked) [Example 236]	≤ 10	–
Cc1cc(C2CC2C(=O)N(Cc2ccc(C(F)(F)F)cn2)[C@H](C)c2ncccn2)cnc1N (some centres unmarked) [Example 7]	> 10000	–
C[C@H](c1ncccn1)N(Cc1ccc(C(F)(F)F)cn1)C(=O)C(=O)Nc1cnc(N)c(Cl)c1 [Example 23]	1000 to 10000	–
CN(C(=O)C(=O)Nc1cnc(N)c2c1cnn2C)C1COCc2cc(-c3cnn(C(F)(F)F)c3)ccc21 (racemic) [Compound 231]	≤ 10	–
CN(C(=O)C(=O)Nc1cnc(N)c2c1cnn2C)C1COCc2cc(-c3ccnn3C)ccc21 (racemic) [Compound 156]	≤ 10	–
C[C@H](c1ncccn1)N(Cc1ccc(C(F)(F)F)cn1)C(=O)C(=O)Nc1cnc(N)c2cncn12 [Example 38]	> 10000	–
CN(C(=O)C(=O)Nc1cnc(N)c2c1cnn2C)C1COCc2cc(-c3ccnn3C3CC3)ccc21 (racemic) [Compound 241]	≤ 10	–
CN(C(=O)C(=O)Nc1cnc(N)c2c1cnn2C)C1COCc2cc(C3=CCC(F)(F)CC3)ccc21 (centres unmarked) [Example 157]	≤ 10	–
[2H]C([2H])([2H])N(C(=O)C(=O)Nc1cnc(N)c2c1cnn2C)C1COCc2cc(C(F)(F)F)ccc21 (centres unmarked) [Example 109]	≤ 10	–
Cc1cc(NC(=O)C(=O)N(Cc2ccc(C(F)(F)F)cn2)C2CCCOC2)cnc1N (single isomer, unassigned) [Example 14-P1]	100 to 1000	–
Cc1cc(NC(=O)C(=O)N(Cc2ccc(C(F)(F)F)cn2)C2CCC2)cnc1N [Example 13]	100 to 1000	–
CN(C(=O)C(=O)Nc1cnc(N)c2c1cnn2C)C1COCc2cc(Cl)c(Cl)cc21 (centres unmarked) [Example 163]	≤ 10	–

SMILES	GI50 (Homo sapiens, HCT-116, 240 h) [nM]	GI50 [nM]
CCOc1ccc(CN(C(=O)C(=O)Nc2cnc(N)c(C)c2)[C@H](C)c2ncccn2)nn1 [Example 35]	10 to 100	–
Cc1cc(NC(=O)C(=O)N(Cc2ccc(N3CCC(F)(F)C3)cn2)[C@H](C)c2ncccn2)cnc1N [Example 29]	100 to 1000	–
C[C@H](c1ncccn1)N(Cc1ccc(C(F)(F)F)cn1)C(=O)C(=O)Nc1cnc(N)c2c1COC2 [Example 2]	10 to 100	–
CN(C(=O)C(=O)Nc1cnc(N)c2c1cnn2C)C1COc2cc(-c3ccnn3C)ccc21 (racemic) [Compound 192]	≤ 10	–
CN1CC=C(c2ccc3c(c2)COCC3N(C)C(=O)C(=O)Nc2cnc(N)c3c2cnn3C)CC1 (centres unmarked) [Example 160]	10 to 100	–
CN(C(=O)C(=O)Nc1cnc(N)c2c1cnn2C)C1COCc2c1ccc(Cl)c2Cl (racemic) [Compound 168]	≤ 10	–
CN(C(=O)C(=O)Nc1cnc(N)c2c1cnn2C)C1COCc2cc(-c3cnn(C4CC4)c3)ccc21 (racemic) [Compound 223]	≤ 10	–
[2H]C([2H])([2H])n1ncc2c(NC(=O)C(=O)N(C)C3COc4cc(C(F)(F)F)ccc43)cnc(N)c21 (centres unmarked) [Example 173]	10 to 100	–
CN(C(=O)C(=O)Nc1cnc(N)c2c1cnn2C)C1COc2cc(-c3cnn(C(F)(F)F)c3)ccc21 (centres unmarked) [Example 213]	≤ 10	–
Cc1cc(/C=C/C(=O)N(Cc2ccc(C(F)(F)F)cn2)[C@H](C)c2ncccn2)cnc1N [Example 6]	> 10000	–
Cc1cc(NC(=O)C(=O)N(Cc2ccc(C(F)(F)F)cn2)C2CC2)cnc1N [Example 12]	100 to 1000	–
C[C@H](c1ncccn1)N(Cc1ccc(C(F)(F)F)cn1)C(=O)C(=O)Nc1cnc(N)c(F)c1 [Example 22]	1000 to 10000	–
Cc1nc(NC(=O)C(=O)N(Cc2ccc(C(F)(F)F)cn2)[C@H](C)c2ncccn2)cnc1N [Example 27]	100 to 1000	–
C[C@H](c1ncccn1)N(Cc1ccc(C(F)(F)F)cn1)C(=O)C(=O)Nc1cnc(N)c(Br)c1 [Example 24]	100 to 1000	–
Cc1cc(NC(=O)C(=O)N(Cc2ccc(C(F)(F)F)cn2)C2CCCC2)cnc1N [Example 11]	100 to 1000	–
CCC(C)N(Cc1cnn(C)c1)C(=O)C(=O)Nc1cnc(N)c(C)c1 (centres unmarked) [Example 73]	> 10000	–
CN(C(=O)C(=O)Nc1cnc(N)c2c1cnn2C)C1COc2cc(-c3ccnn3C)ccc21 (centres unmarked) [Example 161]	≤ 10	–
Cc1ccc2c(c1)OCC2N(C)C(=O)C(=O)Nc1cnc(N)c2c1cnn2C (centres unmarked) [Example 233]	10 to 100	–
CN(C(=O)C(=O)Nc1cnc(N)c2c1cnn2C)C1COCc2cc(C3=CCOCC3)ccc21 (centres unmarked) [Example 100]	≤ 10	–
CN(C(=O)C(=O)Nc1cnc(N)c2c1cnn2C)C1COCc2cc(Br)ccc21 (centres unmarked) [Example 94]	≤ 10	–
CN(C(=O)C(=O)Nc1cnc(N)c2c1cnn2C)C1COCc2cc(-c3ccc(C(F)(F)F)nc3)ccc21 (racemic) [Compound 221]	≤ 10	–
